Consider 37 compounds from ChEMBL document CHEMBL3301451, “MMV Malaria Box gametocyte functional viability assay screening”.

Holding throughout (format): functional
What all share (design): concentration or dose not given beside the values

One assay deals with Plasmodium berghei. The assay is described as follows: MMV: P. berghei-infected blood was withdrawn from mice by cardiac pucture before being immediately added to ookinete culture medium containing test compounds. 26 hr later, GFP-positive ookinetes were identified and counted by automated microscopy. All compounds were tested in 4 independent experiments and data presented here is the mean.

Assay [1] relates to Plasmodium falciparum. The assay is described as follows: MMV: P. falciparum NF54 functionally mature Stage V gametocytes were incubated for 24 hr in the presence of the test compounds. Gamete formation was then triggered by addition of 2uM xantheurenic acid and temperature decrease to ~20C. Male gamete exflagellation was recorded and analysed by automated microscopy after 20 min. All compounds were tested in 4 independent experiments and data presented here is the mean.

Assay [2] has as its system Plasmodium falciparum. The assay is described as follows: MMV: P. falciparum NF54 functionally mature Stage V gametocytes were incubated for 24 hr in the presence of the test compounds. Gamete formation was then triggered by addition of 2uM xantheurenic acid and temperature decrease to ~20C. Female gamete formation was recorded 24 hr later by automated microscopy detection of surface labelling of female gametes with a Cy3-conjugated antibody reactive to Pfs25. All compounds were tested in 4 independent experiments and data presented here is the mean. Particulars: NF54, 24 h.

As for `O=C(Nc1ccc(Cl)c(Cl)c1)Nc1ccc(Cl)c(Cl)c1`, the inhibition in the assay on Plasmodium berghei is -17.89%; in the assay with Plasmodium falciparum [1], -55.6%; in the assay on Plasmodium falciparum [2], -21.6%.

As for `Cc1sc(NC(=O)c2ccccc2)c(C(c2cccs2)N2CCN(c3ccccc3)CC2)c1C` (stereo unspecified), the inhibition with Plasmodium berghei was -17.69%; in the assay with Plasmodium falciparum [1], 8.21%; in the assay with Plasmodium falciparum [2], -14.4%.

As to `CCOC(=O)c1c(C)n(-c2ccccc2)c2ccc(OC(=O)c3cc(OC)c(OC)c(OC)c3)cc12`, the inhibition in the assay on Plasmodium berghei is -17.17%; in the assay on Plasmodium falciparum [1], 18.3%; in the assay on Plasmodium falciparum [2] it was -31.5%.

In the case of `CCN(CC)CCNc1ncnc2c1[nH]c1ccc(Cl)cc12`, the inhibition is -19.34% with Plasmodium berghei, -43.5% with Plasmodium falciparum [1] and -27.6% in the assay with Plasmodium falciparum [2].

As for `COc1ccc(C(=O)Nc2ccc3nc(N4CCCCC4)cc(C)c3c2)cc1OC`, the inhibition with Plasmodium berghei is -18.9%; in the assay with Plasmodium falciparum [1], 9.9%; in the assay on Plasmodium falciparum [2], -48%.

`Cc1ccc(C(=O)c2oc3ccc4c(C)cc(=O)oc4c3c2C)cc1`: the figures for the inhibition with Plasmodium berghei, in the assay with Plasmodium falciparum [1] and in the assay with Plasmodium falciparum [2] were -19.35%, -7.03% and -29.5%, respectively.

For `COc1ccc(CN2CCCC(C(=O)c3ccc(C(F)(F)F)cc3)C2)c(O)c1` (stereo unspecified), the figures for the inhibition in the assay on Plasmodium berghei, in the assay on Plasmodium falciparum [1] and with Plasmodium falciparum [2] were -17.45%, 36.1% and 6.89%, respectively.

Turning to `O=C(CCl)NCCOc1ccc(Cl)cc1Cl`, the inhibition in the assay on Plasmodium berghei was -18.34%; in the assay with Plasmodium falciparum [1], 13.7%; with Plasmodium falciparum [2] it was -30.6%.

As for `CC(=O)c1ccc(NC(=O)CSc2nc(-c3ccccc3Cl)ns2)cc1`, the inhibition with Plasmodium berghei is -19.34%; with Plasmodium falciparum [1], 33.1%; with Plasmodium falciparum [2], 2.09%.

On to `O=[N+]([O-])c1ccc(C=NNc2nc3ccccc3[nH]2)cc1`, for which the values for the inhibition with Plasmodium berghei, with Plasmodium falciparum [1] and in the assay on Plasmodium falciparum [2] were -19.94%, 18.3% and -17%, respectively.

Regarding `CCOc1cc2c(cc1OCC)C(c1cc(OC)c(O)cc1Cl)NCC2` (stereo unspecified), the inhibition in the assay with Plasmodium berghei was -21.67%; with Plasmodium falciparum [1], 19.6%; in the assay with Plasmodium falciparum [2] it was -6.96%.

With `COc1ccc(C2=C(c3ccc(OC)cc3)C3(c4ccccc4)C(=O)C2(c2ccccc2)C2C(=O)N(c4ccc(C)cc4)C(=O)C23)cc1` (stereo unspecified), the inhibition in the assay on Plasmodium berghei was -21.97%; in the assay with Plasmodium falciparum [1] it was -9%; with Plasmodium falciparum [2], 7.88%.

With `COc1ccc(CNC(=O)c2cc3c(=O)n4ccccc4nc3n(CCc3ccccc3)c2=N)cc1`, the inhibition is -21.18% with Plasmodium berghei, -25% in the assay on Plasmodium falciparum [1] and 0.565% with Plasmodium falciparum [2].

Take `CCOc1cc(Br)c(C(C)NC(=O)c2cccc(OC)c2)cc1OCC` (stereo unspecified): the inhibition is -20.12% in the assay with Plasmodium berghei, 10.3% with Plasmodium falciparum [1] and -28.3% in the assay with Plasmodium falciparum [2].

Consider `Cl.Cn1c(=O)n(C)c2cc(CNCCNc3ccnc4cc(Cl)ccc34)ccc21`, for which the inhibition with Plasmodium berghei was -19.76%; in the assay on Plasmodium falciparum [1] it was -3.18%; with Plasmodium falciparum [2] it was -26.8%.

For the compound `COc1ccc(Nc2cc(C)nc(NCc3ccccc3)n2)cc1`, the inhibition is -20.03% in the assay on Plasmodium berghei, -9.51% with Plasmodium falciparum [1] and -30.5% in the assay on Plasmodium falciparum [2].

Regarding `COc1ccccc1CNC(=O)CCn1c(=O)[nH]c2ccccc2c1=O`, the inhibition is -17.49% in the assay with Plasmodium berghei, 13.3% in the assay on Plasmodium falciparum [1] and -26.4% with Plasmodium falciparum [2].

Consider `CCOC(=O)c1cnc2ccc(OC)cc2c1Nc1ccc(N2CCN(C)CC2)cc1`, for which the values for the inhibition in the assay with Plasmodium berghei, in the assay with Plasmodium falciparum [1] and with Plasmodium falciparum [2] were -18.25%, -13.9% and -40%, respectively.

Turning to `CN1C=C(c2ccc3ccccc3n2)C(c2c[nH]c3ccccc23)c2ccccc21` (stereo unspecified), the inhibition in the assay with Plasmodium berghei was -19.58%; in the assay on Plasmodium falciparum [1], -6.39%; in the assay on Plasmodium falciparum [2] it was -36.4%.

On to `COc1ccc(Br)cc1C1Nc2ccc3ccccc3c2C2=C1C(=O)CC(c1ccccc1)C2` (stereo unspecified), for which the inhibition in the assay on Plasmodium berghei was -18.54%; with Plasmodium falciparum [1] it was 9.97%; with Plasmodium falciparum [2], -13.2%.

For the compound `O=C(Nc1ccc(-c2nc3cc4ccccc4cc3[nH]2)cc1)c1cccc(Br)c1`, the inhibition with Plasmodium berghei was -21.87%; in the assay on Plasmodium falciparum [1] it was 30.7%; with Plasmodium falciparum [2], -0.0992%.

With `OC(CNC1CCCCC1)Cn1c2ccc(I)cc2c2cc(I)ccc21` (stereo unspecified), the inhibition was -21.59% with Plasmodium berghei, -12.3% in the assay on Plasmodium falciparum [1] and -48% with Plasmodium falciparum [2].

Consider `CC1CCN(Cc2ccc(NC(=O)c3cc4ccc5cccnc5c4[nH]3)cc2)CC1`, for which the figures for the inhibition in the assay on Plasmodium berghei, with Plasmodium falciparum [1] and with Plasmodium falciparum [2] were -17.24%, 10.2% and -3.24%, respectively.

Take `OC(CNC1CCCC1)Cn1c2ccccc2c2ccccc21` (stereo unspecified): the inhibition in the assay on Plasmodium berghei was -16.75%; in the assay with Plasmodium falciparum [1], -4.27%; with Plasmodium falciparum [2] it was 12.4%.

In the case of `CCc1ccc(Nc2cc(C)c3ccc(O)cc3n2)cc1.Cl`, the inhibition in the assay with Plasmodium berghei was -20.95%; with Plasmodium falciparum [1], 15.2%; in the assay on Plasmodium falciparum [2], -14%.

As for `COc1cccc(C(=O)NC(c2ccc(C)cc2)c2cc(Cl)c3cccnc3c2O)c1` (stereo unspecified), the inhibition in the assay on Plasmodium berghei is -20.64%; in the assay with Plasmodium falciparum [1], 19.5%; in the assay on Plasmodium falciparum [2] it was 0.843%.

For `COc1ccc2c(=O)cc(C(Cl)(Cl)Cl)oc2c1`, the inhibition in the assay with Plasmodium berghei is -22.17%; in the assay with Plasmodium falciparum [1], 31.7%; in the assay with Plasmodium falciparum [2], -23.2%.

For `Br.CCn1c2c(c(=N)c3c1CCC3)CCCC2`, the values for the inhibition in the assay on Plasmodium berghei, in the assay with Plasmodium falciparum [1] and in the assay on Plasmodium falciparum [2] were -17.86%, -42.4% and -26.2%, respectively.

Regarding `Cc1cc(Nc2ccc(Cl)cc2)n2nc(C(F)(F)F)nc2n1`, the inhibition with Plasmodium berghei is -18.89%; with Plasmodium falciparum [1], 15.3%; in the assay on Plasmodium falciparum [2], -10.6%.

For the compound `COc1ccc(CN2CCN(Cc3ccccc3)CC2)c(O)c1`, the inhibition with Plasmodium berghei was -17.51%; in the assay on Plasmodium falciparum [1], -11.1%; with Plasmodium falciparum [2], -16.4%.

For `COc1ccc(C(C)=O)cc1N1C(=O)C2C(C1=O)C1(c3ccccc3)C(=O)C2(c2ccccc2)C(c2ccc(C)cc2)=C1c1ccc(C)cc1` (stereo unspecified), the inhibition with Plasmodium berghei was -19.71%; in the assay on Plasmodium falciparum [1], 21.8%; in the assay on Plasmodium falciparum [2], -9.11%.

Regarding `CCCCCCc1cc(O)c2c3c(c(=O)oc2c1)CCC(C)C3` (stereo unspecified), the inhibition is -17.21% in the assay on Plasmodium berghei, -1.29% in the assay on Plasmodium falciparum [1] and -7.13% with Plasmodium falciparum [2].

Regarding `COc1ccc(CCNC(=O)c2cc(S(=O)(=O)N3CC(C)CC(C)C3)ccc2Sc2ccc(F)cc2)cc1OC` (stereo unspecified), the results for the inhibition in the assay with Plasmodium berghei, in the assay with Plasmodium falciparum [1] and with Plasmodium falciparum [2] were -21.03%, -26.1% and 4.07%, respectively.

In the case of `COc1cc2c3cc1Oc1c(OC)c(OC)cc4c1C(Cc1ccc(O)c(c1)Oc1ccc(cc1)CC3N(C)CC2)N(C)CC4.Cl` (stereo unspecified), the results for the inhibition with Plasmodium berghei, with Plasmodium falciparum [1] and in the assay on Plasmodium falciparum [2] were -16.79%, -64.1% and -37.2%, respectively.

With `Cc1ccc(Nc2nc(NCCO)c3ccccc3n2)cc1C`, the inhibition in the assay on Plasmodium berghei was -19.56%; in the assay on Plasmodium falciparum [1], 12.7%; with Plasmodium falciparum [2], -25.6%.

Regarding `COc1ccc2sc(N(Cc3cccnc3)C(=O)c3ccc(C#N)cc3)nc2c1`, the inhibition with Plasmodium berghei was -20.76%; in the assay on Plasmodium falciparum [1], 18.5%; in the assay on Plasmodium falciparum [2] it was -25.4%.

`Cc1c(C)n(CC(O)CNC2CCCCC2C)c2ccccc12` (stereo unspecified): the figures for the inhibition in the assay with Plasmodium berghei, in the assay on Plasmodium falciparum [1] and with Plasmodium falciparum [2] were -21.36%, 8.26% and -4.05%, respectively.
